From PMC2605449, “Modification of carbonic anhydrase II with acetaldehyde, the first metabolite of ethanol, leads to decreased enzyme activity” (BMC Biochemistry, 2008)

Target: T1, recombinant human CA II (carbonic anhydrase isozyme II) (Homo sapiens, UniProt P00918, S2A)
T1 construct: gene CA2; recombinant in E. coli, full length, initiator Met removed, second residue Ser changed to Ala by cloning
Experiment: end-point titration (Maren) with spectrophotometric colour determination
Format: biochemical
Settings: covalent; pretreated […] h at […] °C, […] NaBH3(CN) added after […] h (N-ethyllysine adducts); CO2 substrate, ice-cold

SMILES: CC=O [acetaldehyde]
- % reduction in activity at 100 mM: 23.7%
